Experimental findings from patent US5767085A, “Compounds with growth hormone releasing properties” (Novo Nordisk A/S, priority 1993, dated 1998) are described below.

In general, EC50 refers to the concentration needed to bring the measured effect to its halfway point. Low readings indicate an effect from little substance, high ones a need for much substance.

Where a SMILES comes first, the peptide text is derived from it. [ ]: non-standard residue; d: D form. d1Nal = N[C@H](Cc1cccc2ccccc12)C(=O)O; d2Nal = N[C@H](Cc1ccc2ccccc2c1)C(=O)O; Aib = CC(C)(N)C(=O)O

This assay has as its system rat pituitary cells. The assay is described as follows: In-vitro GH release assay using rat pituitary cells (rGH measured by SPA). To be noted: GH secretion from cultured male rat anterior pituitary cells, 15 min stimulation. The class given is cell-based. The method, then:
An in-vitro assay using rat pituitary cells was established to study the effect of different GH secretagogues. The mixed pituitary cell culture was isolated from the anterior pituitary of male rats and cultured for 3 days. After washing the cells were stimulated for 15 min and the amount of GH secreted measured in the culture supernatant. The isolation of rat pituitary cells was a modification of 0. Sartor et al., Endocrinolog 116, 1985, pp. 952-957. Pituitaries were discharged from 250 g male Sprague-Dawley rats after decapitation. The neurointermediate lobes were removed and the remainder was placed in Grey's medium supplemented with 0.25% glucose, 2× non essential amino acid and 1% BSA (isolation buffer). The glands were cut into small pieces and transferred to a flask containing 3 ml isolation buffer+11.5 mg trypsin and 1000 μg DNase and incubated for 35 min at 37° C., 95% ° 2 and 70 rotations per min. The fragments were washed 3 times by sedimentation in isolation buffer and aspirated into single cells by using a pasteur pipet. After dispersion the cells were filtered though a nylon filter (160 jum) to remove undigested tissue. The cells were washed 3 times with isolation buffer supplemented with trypsin inhibitor (0.75 mg/ml) and resuspended in culture medium (DMEM supplemented with 25 mM HEPES, 4mM Glutamine, 0.75% sodium bicarbonate, 2.5% FCS, 3% horse serum, 10% rat serum, 1 nM T3 and 40 gg/L dexamethasone) to a density of 2×10^5 cells/ml. The cells were seeded into microtiter plates, 200 μl/well and cultured for 3 days at 37° C.and 8% CO2. Following the culture period the cells were washed twice with stimulation buffer (HBSS supplemented with 1% BSA, 0.25% D-glucose and 25 mM HEPES) and preincubated for 1 hour. The buffer was then removed and new stimulation buffer containing the peptide was added and the plates were incubated for 15 min at 37° C.and 5% CO2. The medium was collected and analyzed for rat growth hormone (rGH) content in a scintillation proximity assay (SPA) as follows (SPA, essentially as described in U.S. Pat. No. 4,568,649, Hart and […], Mol.Immunol. 16, 1979, pp. 265-269, or Udenfriend et al., Proc.Natl.Acad.Sci. USA 82, 1985, pp. 8672-8676). The rGH assay was performed in OptiPlates (96-well plates) suitable for direct counting in a […] TopCount (β-scintillation counter). Assay Protocol: 40 μl buffer 10 μl sample (incubated stimulation buffer) […] 50 μl rabbit anti-rGH 50 μl SPA reagent (anti-rabbit antibody) The plates are sealed and placed on a plate shaker for 30 minutes followed by 10 hours of incubation and settling at 10-15° C.and counting. In the SPA, rGH bound to an anti-GH rabbit antibody (primary antibody) is reacted with a second antibody bound to fluomicrospheres (SPA Type II RIA available from Amersham). Any radiolabelled rGH which is bound to the primary antibody will be immobilized on the fluomicrospheres which will then produce light. Measurement in a β-scintillation counter makes it possible to calculate the amount of radiolabelled rGH. The amount of radiolabelled rGH bound to the fluomicrospheres decreases with an increasing content of rGH in the sample.
For `CC(C)(N)C(=O)N[C@@H](Cc1ccccc1)C(=O)N[C@H](Cc1ccc2ccccc2c1)C(=O)N[C@H](Cc1ccccc1)C(=O)N[C@@H](CCCCN)C(N)=O` [Example 83, H--Aib--Phe--D-2Nal-D--Phe--Lys--NH2] (H-[Aib]F[d2Nal][dF]K-NH2), a half-maximal response (EC50) required 8 nM and the “Emax (% of GHRP-6)” value is 75 % of GHRP-6.
For the molecule `C[C@H](NC(=O)[C@@H](Cc1ccccc1)NC(=O)[C@@H](Cc1ccc2ccccc2c1)NC(=O)[C@H](Cc1c[nH]cn1)NC(=O)C(C)(C)N)C(N)=O` [Example 88, H--Aib--His--D-2Nal-D--Phe--Ala--NH2] (H-[Aib]H[d2Nal][dF]A-NH2), the response was half-maximal at 11 nM (EC50) and the “Emax (% of GHRP-6)” value is 80 % of GHRP-6.
On the same counts, the results for `C[C@H](N)C(=O)N[C@@H](Cc1c[nH]cn1)C(=O)N[C@H](Cc1cccc2ccccc12)C(=O)N[C@H](Cc1ccccc1)C(=O)N[C@@H](CCCCN)C(N)=O` [Example 51, H--Ala--His--D-1Nal-D--Phe--Lys--NH2] (H-AH[d1Nal][dF]K-NH2) are 10 nM and 85 % of GHRP-6.
`C[C@H](N)C(=O)N[C@@H](Cc1ccccc1)C(=O)N[C@H](Cc1ccc2ccccc2c1)C(=O)N[C@H](Cc1ccccc1)C(=O)N[C@@H](CCCCN)C(N)=O` [Example 10, H--Ala--Phe--D-2Nal-D--Phe--Lys--NH2] (H-AF[d2Nal][dF]K-NH2): the EC50 was found to be 2 nM and the “Emax (% of GHRP-6)” value is listed as 90 % of GHRP-6.
